Columns and labels:
EMT6 [1] = test: Compound is measured for surviving fractions of EMT6 tumor cells treated in culture with (0.50 uM) concentration for 1 hr under aerobic condition.; assay type: functional; conditions: Mus musculus, EMT6, 1 h; read-out: ED50 (the source's name)
EMT6 [2] = test: Compound is measured for surviving fractions of EMT6 tumor cells treated in culture with (0.50 uM) concentration for 1 hr under hypoxic condition.; assay type: functional; conditions: Mus musculus, EMT6, 1 h; read-out: ED50 (the source's name)
[3] = Ratio of toxicity in areobic conditions to hypoxic condition of EMT6 cells; assay type: functional
EMT6 [4] = test: Percentage of EMT6 tumor cells under hypoxic condition were killed when exposed to 10 uM concentration of the compound; assay type: functional, Mus musculus
EMT6 [5] = test: Maximum effective concentration against EMT6 tumor cells uncer aerobic conditions; assay type: functional, cell-based; conditions: Mus musculus

Structure (SMILES) | EC50 (EMT6 [1]) | EC50 (EMT6 [2]) | Ratio [3] | Inhibition (EMT6 [4]) | Concentration (EMT6 [5])
Cc1ccc2c(c1)C(=O)c1ccccc1C2=O [TECTOQUINONE] | 1.7 µM | 0.54 µM | 3.2 | – | –
O=C1c2ccccc2C(=O)c2cc(CO)ccc21 | 348 µM | 2.5 µM | 139 | – | –
Cc1ccc(S(=O)(=O)OCc2ccc3c(c2)C(=O)c2ccccc2C3=O)cc1 | > 1000 µM | 9 µM | >111 | 50% | –
CC(=O)OCc1ccc2c(c1)C(=O)c1ccccc1C2=O | 3.6 µM | 9 µM | 0.4 | – | –
COCc1ccc2c(c1)C(=O)c1ccccc1C2=O | 30 µM | 0.6 µM | 50 | – | –
O=C1c2ccccc2C(=O)c2cc(CCl)ccc21 | 0.31 µM | < 0.012 µM | >26 | – | –
CNC(=O)OCc1ccc2c(c1)C(=O)c1ccccc1C2=O | 8.1 µM | 0.27 µM | 30 | – | 100 µM
CS(=O)(=O)OCc1ccc2c(c1)C(=O)c1ccccc1C2=O | 180 µM | 69.6 µM | 2.6 | – | –
COc1cccc2c1C(=O)c1c(O)c3c(c(O)c1C2=O)C[C@@](O)(C(=O)CO)C[C@@H]3O[C@H]1C[C@H](N)[C@H](O)[C@H](C)O1 [DOXORUBICIN] | 0.012 µM | < 0.0001 µM | >120 | – | –
CO[C@@]12[C@H](COC(N)=O)C3=C(C(=O)C(C)=C(N)C3=O)N1C[C@@H]1N[C@@H]12 [MITOMYCIN] | 0.7 µM | 0.001 µM | 700 | – | –

From ChEMBL document CHEMBL1121562, “2-Methylanthraquinone derivatives as potential bioreductive alkylating agents” (1980)
